According to patent publication US4760077A, “Pyrrothine derivatives and pharmaceutical use thereof” (Boehringer Mannheim GmbH, priority 1984, dated 1988):
pIC50: −log10 of the molar value. Counter-ions that a name gives are not always drawn. Like-named read-outs stand apart in the source and are kept apart here. Each block holds one compound with its values, some of them ahead of it.

Key:
[1] = test system: allergen-induced degranulation of peripheral leukocytes; assay: Inhibition of the allergen-induced degranulation reaction of peripheral leukocytes (method of Siraganian and Hook); format: cell-based; settings: Homo sapiens, Leukocyte
Experimental: For the detection of the anti-allergic action, there was measured the inhibition of the allergen-induced degranulation reaction of peripheral leukocytes; one operated according to the method of R. P. Siraganian and W. A. Hook (Manual of Clinical Immunology, 2nd edition 1980, pub. N. R. Rose and H. Friedman, Am. Soc. for Microbiology, pages 808 to 821).

[2] = test system: gram-positive and gram-negative bacteria, pathogenic fungi and protozoa; settings: Celmer and Solomons, J. Am. Chem. Soc. 77 (1955) 2861; cited from earlier work
mouse [3] = settings: p.o., Table I, for the toxicity cf. literature named; cited from earlier work
mouse [4] = assay: Toxicity LD50 p.o., mouse; format: in vivo; settings: thiolutin vs theophylline
[5] = Table I, 50% inhibition in vitro, read-out: ID50 (the source's name)

SMILES: CC(=O)NC1=C(S)C(=CS)N(C)C1=O [Example 3, 3-Acetamido-4-mercapto-5-mercaptomethylene-1-methylpyrrolin-2-one disodium salt]
pIC50 [1, 5]: 5.60

SMILES: CN(C)C1=C(S)C(=CS)N(C)C1=O [Example 5, 3-Dimethylamino-4-mercapto-5-mercaptomethylene-1-methylpyrrolin-2-one disodium salt]
pIC50 ([1]; Examples 3 to 5, no unit printed at the value, read-out: ID50 (the source's name)): 4.30 | pIC50 [1, 5]: 5.30

SMILES: CC(=O)Nc1c2sscc-2n(C)c1=O [thiolutin]
antibiotic action, in words [2]: action against gram-positive and gram-negative bacteria, pathogenic fungi and protozoa | pIC50 ([1]; read-out: ID50): 6.40 | LD50 (mouse [3]): 25 mg/kg | factor of therapeutic index against comparison compound theophylline (mouse [4]): more than 10^4

SMILES: Cn1c(=O)c2[nH]cnc2n(C)c1=O [theophylline, reference compound]
pIC50 [1, 5]: 2.30

SMILES: CCC(=O)Nc1c2sscc-2n(C)c1=O [aureothricin]
antibiotic action, in words [2]: action against gram-positive and gram-negative bacteria, pathogenic fungi and protozoa | pIC50 ([1]; read-out: ID50 (the source's name)): 6.05

Other lines, results leading:

pIC50 [1, 5]: 5.34
SMILES: CN(C)c1c2sscc-2n(C)c1=O [Example 4, N,N-Dimethylpyrrothine]

pIC50 [1, 5]: 6.05
SMILES: Cn1c2cssc-2c(N)c1=O [pyrrothine, 4-methyl-6-amino-1,2-dithiolo[4,3-b]pyrrol-5(4H)-one]

pIC50 [1, 5]: 5.77
SMILES: CC(C)C(=O)Nc1c2sscc-2n(C)c1=O [isobutyrylpyrrothine]
